Values of other authors as cited in patent US7435726B2, “Compositions and methods for the treatment of cancer” (Celgene Corporation, priority 2001, dated 2008).

Settings: irinotecan monotherapy, expected frequency

In the case of `CCc1c2c(nc3ccc(OC(=O)N4CCC(N5CCCCC5)CC4)cc13)-c1cc3c(c(=O)n1C2)COC(=O)[C@]3(O)CC` [Irinotecan, (4S)-4,11-diethyl-4-hydroxy-9-[(4-piperidino-piperidino)carbonyl-oxy]1H-pyranol-[3′,4′:6,7]indolizinol[1,2-b]quinoline-3,14-(4H,12H)dione], the “Abdominal colic/pain, Expected (%) Grade 1-4” value is listed as 23.7%, the “Abdominal colic/pain, Expected (%) Grade 3-4” value is listed as 2.3% and the “Asthenia, Expected (%) Grade 1-4” value is listed as 75.7%. The “Asthenia, Expected (%) Grade 3-4” value was 12.2%, the “Constipation, Expected (%) Grade 1-4” value was 29.9% and the “Constipation, Expected (%) Grade 3-4” value was 2.0%. The “Diarrhea (Late), Expected (%) Grade 1-4” value was 87.8%, the “Diarrhea (Late), Expected (%) Grade 3-4” value was 30.6% and the “Nausea, Expected (%) Grade 1-4” value was 86.2%. The “Vomiting, Expected (%) Grade 1-4” value was 66.8% and the “Vomiting, Expected (%) Grade 3-4” value was 12.5%.
